This test concerns the target T1, human capsaicin receptor (Homo sapiens, UniProt Q8NER1).
T1 construct: pBK-CMV expression construct encoding the full length human capsaicin receptor; expressed in transfected cells
The experiment in a line: Calcium mobilization assay, determination of antagonist activity (Example 6). The test is classed as cell-based. To be noted: Table II; IC50 determined as described in Example 6. How it is done: A cDNA encoding full length human capsaicin receptor (SEQ ID NO: 1, 2 or 3 of U.S. Pat. No. 6,482,611) was subcloned in the plasmid pBK-CMV (Stratagene, La Jolla, Calif.) for recombinant expression in mammalian cells.
Human embryonic kidney (HEK293) cells were transfected with the pBK-CMV expression construct encoding the full length human capsaicin receptor using standard methods. The transfected cells were selected for two weeks in media containing G418 (400 μg/ml) to obtain a pool of stably transfected cells. Independent clones were isolated from this pool by limiting dilution to obtain clonal stable cell lines for use in subsequent experiments.
This Example illustrates representative calcium mobilization assays for use in evaluating test compounds for agonist and antagonist activity.
Cells transfected with expression plasmids (as described in Example 4) and thereby expressing human capsaicin receptor are seeded and grown to 70-90% confluency in FALCON black-walled, clear-bottomed 96-well plates (#3904, BECTON-DICKINSON, Franklin Lakes, N.J.). The culture medium is emptied from the 96 well plates and FLUO-3 AM calcium sensitive dye (Molecular Probes, Eugene, Oreg.) is added to each well (dye solution: 1 mg FLUO-3 AM, 440 μL DMSO and 440 pi 20% pluronic acid in DMSO, diluted 1:250 in Krebs-Ringer HEPES (KRH) buffer (25 mM HEPES, 5 mM KCl, 0.96 mM NaH2PO4, 1 mM MgSO4, 2 mM CaCl2, 5 mM glucose, 1 mM probenecid, pH 7.4), 50 μl diluted solution per well). Plates are covered with aluminum foil and incubated at 37° C. for 1-2 hours in an environment containing 5% CO2. After the incubation, the dye is emptied from the plates, and the cells are washed once with KRH buffer, and resuspended in KRH buffer.
To measure the ability of a test compound to agonize or antagonize a calcium mobilization response in cells expressing capsaicin receptors to capsaicin or other vanilloid agonist, the EC50 of the agonist capsaicin is first determined. An additional 20 μl of KRH buffer and 1 μl DMSO is added to each well of cells, prepared as described above. 100 μl capsaicin in KRH buffer is automatically transferred by the FLIPR instrument to each well. Capsaicin-induced calcium mobilization is monitored using either FLUOROSKAN ASCENT (Labsystems; Franklin, Mass.) or FLIPR (fluorometric imaging plate reader system; Molecular Devices, Sunnyvale, Calif.) instruments. Data obtained between 30 and 60 seconds after agonist application are used to generate an 8-point concentration response curve, with final capsaicin concentrations of 1 nM to 3 μM. KALEIDAGRAPH software (Synergy Software, Reading, Pa.) is used to fit the data to the equation: y=a*(1/(1+(b/x)^c)) to determine the 50% excitatory concentration (EC50) for the response. In this equation, y is the maximum fluorescence signal, x is the concentration of the agonist or antagonist (in this case, capsaicin), a is the Emax, b corresponds to the EC50 value and c is the Hill coefficient. Determination of Agonist Activity
Test compounds are dissolved in DMSO, diluted in 20 μl KRH buffer so that the final concentration of test compounds in the assay well is between 1 μM and 5 μM, and added to cells prepared as described above. The 96 well plates containing prepared cells and test compounds are incubated in the dark, at room temperature for 0.5 to 6 hours. It is important that the incubation not continue beyond 6 hours. Just prior to determining the fluorescence response, 100 pi capsaicin in KRH buffer at twice the EC50 concentration determined as described above is automatically added by the FLIPR instrument to each well of the 96 well plate for a final sample volume of 200 μl and a final capsaicin concentration equal to the EC50. The final concentration of test compounds in the assay wells is between 1 μM and 5 μM. […]

T1 sequence (Q8NER1 whole entry): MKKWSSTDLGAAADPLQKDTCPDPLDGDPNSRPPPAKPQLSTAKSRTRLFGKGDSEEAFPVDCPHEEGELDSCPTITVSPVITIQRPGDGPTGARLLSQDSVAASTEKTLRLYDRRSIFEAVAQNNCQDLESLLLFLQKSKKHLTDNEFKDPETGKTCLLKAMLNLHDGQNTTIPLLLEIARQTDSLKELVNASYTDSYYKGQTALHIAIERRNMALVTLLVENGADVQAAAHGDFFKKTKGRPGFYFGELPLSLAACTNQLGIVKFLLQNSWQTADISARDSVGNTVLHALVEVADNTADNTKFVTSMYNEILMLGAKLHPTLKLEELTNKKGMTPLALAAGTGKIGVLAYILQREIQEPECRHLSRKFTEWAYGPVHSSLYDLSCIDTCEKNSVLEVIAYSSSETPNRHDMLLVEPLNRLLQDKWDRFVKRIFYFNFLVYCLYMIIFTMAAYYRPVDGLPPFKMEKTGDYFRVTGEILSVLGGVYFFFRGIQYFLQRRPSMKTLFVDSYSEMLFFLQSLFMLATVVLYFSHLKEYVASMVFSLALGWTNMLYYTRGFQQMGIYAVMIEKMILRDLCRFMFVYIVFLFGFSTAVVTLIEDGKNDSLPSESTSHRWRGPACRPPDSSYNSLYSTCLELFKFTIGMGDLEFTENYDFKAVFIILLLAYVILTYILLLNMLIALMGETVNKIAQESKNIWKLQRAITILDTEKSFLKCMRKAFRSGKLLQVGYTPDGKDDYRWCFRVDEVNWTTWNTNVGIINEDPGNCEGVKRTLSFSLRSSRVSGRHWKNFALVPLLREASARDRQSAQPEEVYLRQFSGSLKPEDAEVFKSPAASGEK

Take `FC(F)(F)c1cccc(-c2nc(N3CCOCC3)nc(N3CCN(c4ncccc4C(F)(F)F)CC3)n2)c1` [Example 438, 2-morpholin-4-yl-4-[3-(trifluoromethyl)phenyl]-6-{4-[3-(trifluoromethyl)pyridin-2-yl]piperazin-1-yl}-1,3,5-triazine]: the IC50 is not above 1 µM.

In the case of `C=CCN1CCN(c2nc(-c3ccccc3)nc(N3CCN(c4ncccc4C(F)(F)F)CC3)n2)CC1` [Example 440, 2-(4-allylpiperazin-1-yl)-4-phenyl-6-{4-[3-(trifluoromethyl)pyridin-2-yl]piperazin-1-yl}-1,3,5-triazine], the IC50 was not above 1 µM.

On to `C=CCN1CCN(c2nc(-c3cccc(Cl)c3)nc(N3CCN(c4ncccc4C(F)(F)F)CC3)n2)CC1` [Example 441, 2-(4-allylpiperazin-1-yl)-4-(3-chlorophenyl)-6-{4-[3-(trifluoromethyl)pyridin-2-yl]piperazin-1-yl}-1,3,5-triazine], for which the IC50 is not above 1 µM.

As for `CCCCN1CCN(c2nc(-c3cccc(Cl)c3)nc(N3CCN(c4ncccc4C(F)(F)F)CC3)n2)CC1` [Example 444, 2-(4-butylpiperazin-1-yl)-4-(3-chlorophenyl)-6-{4-[3-(trifluoromethyl)pyridin-2-yl]piperazin-1-yl}-1,3,5-triazine], the IC50 is not above 1 µM.

Turning to `C=CCN1CCN(c2nc(-c3ccc(Cl)cc3)nc(N3CCN(c4ncccc4C(F)(F)F)CC3)n2)CC1` [Example 445, 2-(4-allylpiperazin-1-yl)-4-(4-chlorophenyl)-6-{4-[3-(trifluoromethyl)pyridin-2-yl]piperazin-1-yl}-1,3,5-triazine], the IC50 is not above 1 µM.

Take `C=CCN1CCN(c2nc(-c3ccc(F)cc3)nc(N3CCN(c4ncccc4C(F)(F)F)CC3)n2)CC1` [Example 446, 2-(4-allylpiperazin-1-yl)-4-(4-fluorophenyl)-6-{4-[3-(trifluoromethyl)pyridin-2-yl]piperazin-1-yl}-1,3,5-triazine]: the IC50 is not above 1 µM.

`C=CCN1CCN(c2nc(-c3cccc(F)c3)nc(N3CCN(c4ncccc4C(F)(F)F)CC3)n2)CC1` [Example 448, 2-(4-allylpiperazin-1-yl)-4-(3-fluorophenyl)-6-{4-[3-(trifluoromethyl)pyridin-2-yl]piperazin-1-yl}-1,3,5-triazine]: the IC50 was not above 1 µM.

With `C=CCN1CCN(c2nc(-c3ccc(F)c(C)c3)nc(N3CCN(c4ncccc4C(F)(F)F)CC3)n2)CC1` [Example 450, 2-(4-allylpiperazin-1-yl)-4-(4-fluoro-3-methylphenyl)-6-{4-[3-(trifluoromethyl)pyridin-2-yl]piperazin-1-yl}-1,3,5-triazine], the IC50 was not above 1 µM.

On to `CCCCN1CCN(c2nc(-c3ccc(F)c(C)c3)nc(N3CCN(c4ncccc4C(F)(F)F)CC3)n2)CC1` [Example 452, 2-(4-butylpiperazin-1-yl)-4-(4-fluoro-3-methylphenyl)-6-{4-[3-(trifluoromethyl)pyridin-2-yl]piperazin-1-yl}-1,3,5-triazine], for which the IC50 was not above 1 µM.

For `C=CCN1CCN(c2nc(-c3cccc(C)c3)nc(N3CCN(c4ncccc4C(F)(F)F)CC3)n2)CC1` [Example 453, 2-(4-allylpiperazin-1-yl)-4-(3-methylphenyl)-6-{4-[3-(trifluoromethyl)pyridin-2-yl]piperazin-1-yl}-1,3,5-triazine], the IC50 is not above 1 µM.

As for `C[C@@H]1CN(c2ncccc2C(F)(F)F)CCN1c1cc(-c2ccccc2)nc(N2CCOCC2)n1` [Example 478, 4-(4-{(2R)-2-methyl-4-[3-(trifluoromethyl)pyridin-2-yl]piperazin-1-yl}-6-phenylpyrimidin-2-yl)morpholine], the IC50 is not above 1 µM.

With `C[C@@H]1CN(c2ncccc2Cl)CCN1c1cc(-c2ccccc2)nc(N2CCOCC2)n1` [Example 479, 4-{4-[(2R)-4-(3-chloropyridin-2-yl)-2-methylpiperazin-1-yl]-6-phenylpyrimidin-2-yl}morpholine], the IC50 is not above 1 µM.

As to `Cc1cccnc1N1CCN(c2cc(-c3cccc(Cl)c3)nc(N3CCOCC3)n2)[C@H](C)C1` [Example 480, 4-{4-(3-chlorophenyl)-6-[(2R)-2-methyl-4-(3-methylpyridin-2-yl)piperazin-1-yl]pyrimidin-2-yl}morpholine], the IC50 is not above 1 µM.

For `C[C@@H]1CN(c2ncccc2Cl)CCN1c1cc(-c2cccc(Cl)c2)nc(N2CCOCC2)n1` [Example 481, 4-{4-(3-chlorophenyl)-6-[(2R)-4-(3-chloropyridin-2-yl)-2-methylpiperazin-1-yl]pyrimidin-2-yl}morpholine], the IC50 was not above 1 µM.

For `C[C@@H]1CN(c2ncccc2C#N)CCN1c1cc(-c2ccc(Cl)cc2)nc(N2CCOCC2)n1` [Example 482, 2-{(3R)-4-[6-(4-chlorophenyl)-2-morpholin-4-ylpyrimidin-4-yl]-3-methylpiperazin-1-yl}nicotinonitrile], the IC50 was not above 1 µM.

`Cc1cccnc1N1CCN(c2cc(-c3ccc(Cl)cc3)nc(N3CCOCC3)n2)[C@H](C)C1` [Example 483, 4-{4-(4-chlorophenyl)-6-[(2R)-2-methyl-4-(3-methylpyridin-2-yl)piperazin-1-yl]pyrimidin-2-yl}morpholine]: the IC50 is not above 1 µM.

Turning to `C[C@@H]1CN(c2ncccc2C(F)(F)F)CCN1c1cc(-c2ccc(Cl)cc2)nc(N2CCOCC2)n1` [Example 484, 4-(4-(4-chlorophenyl)-6-{(2R)-2-methyl-4-[3-(trifluoromethyl)pyridin-2-yl]piperazin-1-yl}pyrimidin-2-yl)morpholine], the IC50 was not above 1 µM.

For the compound `C[C@@H]1CN(c2ncccc2Cl)CCN1c1cc(-c2ccc(Cl)cc2)nc(N2CCOCC2)n1` [Example 485, 4-{4-(4-chlorophenyl)-6-[(2R)-4-(3-chloropyridin-2-yl)-2-methylpiperazin-1-yl]pyrimidin-2-yl}morpholine], the IC50 was not above 1 µM.

As for `C[C@@H]1CN(c2ncccc2C#N)CCN1c1cc(-c2ccc(F)cc2)nc(N2CCOCC2)n1` [Example 486, 2-{(3R)-4-[6-(4-fluorophenyl)-2-morpholin-4-ylpyrimidin-4-yl]-3-methylpiperazin-1-yl}nicotinonitrile], the IC50 is not above 1 µM.

Take `C[C@@H]1CN(c2ncccc2Cl)CCN1c1cc(-c2ccc(F)cc2)nc(N2CCOCC2)n1` [Example 487, 4-[4-[(2R)-4-(3-chloropyridin-2-yl)-2-methylpiperazin-1-yl]-6-(4-fluorophenyl)pyrimidin-2-yl]morpholine]: the half-inhibitory concentration (IC50) is not above 1 µM.

For the compound `C[C@@H]1CN(c2ncccc2Cl)CCN1c1cc(-c2cccc(F)c2)nc(N2CCOCC2)n1` [Example 488, 4-[4-[(2R)-4-(3-chloropyridin-2-yl)-2-methylpiperazin-1-yl]-6-(3-fluorophenyl)pyrimidin-2-yl]morpholine], the IC50 is not above 1 µM.

Turning to `C[C@@H]1CN(c2ncccc2C#N)CCN1c1cc(-c2ccc3ccccc3c2)nc(N2CCOCC2)n1` [Example 489, 2-{(3R)-3-methyl-4-[2-morpholin-4-yl-6-(2-naphthyl)pyrimidin-4-yl]piperazin-1-yl}nicotinonitrile], the half-maximal inhibitory concentration (IC50) is not above 1 µM.

Consider `Cc1cccnc1N1CCN(c2cc(-c3ccc4ccccc4c3)nc(N3CCOCC3)n2)[C@H](C)C1` [Example 490, 4-[4-[(2R)-2-methyl-4-(3-methylpyridin-2-yl)piperazin-1-yl]-6-(2-naphthyl)pyrimidin-2-yl]morpholine], for which the IC50 was not above 1 µM.

For the compound `C[C@@H]1CN(c2ncccc2C(F)(F)F)CCN1c1cc(-c2ccc3ccccc3c2)nc(N2CCOCC2)n1` [Example 491, 4-[4-{(2R)-2-methyl-4-[3-(trifluoromethyl)pyridin-2-yl]piperazin-1-yl}-6-(2-naphthyl)pyrimidin-2-yl]morpholine], the IC50 was not above 1 µM.

These data come from patent publication US7566712B2, “Biaryl piperazinyl-pyridine analogues” (Neurogen Corporation, priority 2003, dated 2009).
